Results from patent publication US9464071B2 (priority 2010, dated 2016).
Where “and” joins values, the source holds several entries; their conditions need not be identical. Equal values may be shown once. Where a name gives a salt, the structure may show the parent alone.

Row | melting point | SMILES
1 | 187 °C | COc1ccnc(C#CCN(c2ccc3ncc(-c4cnn(C)c4)nc3c2)c2c(F)c(OC)cc(OC)c2F)n1
2 | 152 °C | COc1cc(OC)cc(N(CCN(Cc2ccc(N)cc2)C(C)C)c2ccc3ncc(-c4cnn(C)c4)nc3c2)c1 [Compound 658]
3 | 186.98 °C | COc1cc(OC)cc(N(C[C@H](O)CO)c2ccc3ncc(-c4cnn(C)c4)nc3c2)c1 (single isomer, unassigned) [Compound 98]
4 | 80 °C | COc1cc(OC)cc(N(CCCn2cccn2)c2ccc3ncc(-c4cnn(C)c4)nc3c2)c1 [Compound 448]
5 | 156.5 °C | Cn1cc(-c2cnc3ccc(N(CC4CC4)c4cccc(OC(F)(F)F)c4)cc3n2)cn1 [Compound 881]
6 | 114.12 °C | COc1cc(OC)cc(N(Cc2ccc(Cl)cc2)c2ccc3ncc(-c4cnn(C)c4)nc3c2)c1
7 | 171 °C | COc1cc(OC)cc(N(Cc2cc(C)on2)c2ccc3ncc(-c4cnn(C)c4)nc3c2)c1
8 | 203.4 °C and 203.41 °C | COc1cc(OC)cc(N(CC2CC2)c2ccc3ncc(-c4cnn(CC(=O)N5CCC(O)C5)c4)nc3c2)c1 (stereo not drawn)
9 | 70 °C | COc1cc(OC)cc(N(CCN(Cc2ccccc2N)C(C)C)c2ccc3ncc(-c4cnn(C)c4)nc3c2)c1
10 | 136.49 °C | COc1cc(OC)cc(N(CCN2CCN(C3CCN(C(C)=O)CC3)CC2)c2ccc3ncc(-c4cnn(C)c4)nc3c2)c1 [Compound 583]
11 | 215.88 °C | COc1cc(OC)cc(N(CCN2C(=O)c3ccccc3C2=O)c2ccc3ncc(-c4cnn(C)c4)nc3c2)c1
12 | 127 °C | COc1cc(OC)cc(N(CCNC(C)C)c2ccc3ncc(-c4cnn(CCC#N)c4)nc3c2)c1 [Compound 642]
13 | 126 °C | COc1cc(OC)cc(N(CCN(C)C(C)C)c2ccc3ncc(-c4cnn(C)c4)nc3c2)c1
14 | 90 °C | COc1cc(OC)cc(N(CC2CC2)c2ccc3ncc(-c4cnn(C5CCNCC5)c4)nc3c2)c1
15 | 203 °C | COc1cc(OC)cc(N(Cc2cc[nH]n2)c2ccc3ncc(-c4cnn(C)c4)nc3c2)c1 (as salt: HCl)
16 | 130 °C | COc1cc(OC)cc(N(CCC(=O)N(C)OC)c2ccc3ncc(-c4cnn(C)c4)nc3c2)c1 [Compound 633]
17 | 80 °C | COc1cc(OCCO)cc(N(CCCO)c2ccc3ncc(-c4cnn(C)c4)nc3c2)c1
18 | 201 °C | COc1cc(OC)cc(N(CCN2CCOCC2)c2ccc3ncc(-c4cnn(C)c4)nc3c2)c1 [Compound 299]
19 | 83 °C | COc1cc(OC)cc(N(c2ccc3ncc(-c4cnn(C)c4)nc3c2)[C@H]2CC[C@@H](NC(C)C)CC2)c1
20 | 152 °C | COc1cc(F)cc(N(CCCO)c2ccc3ncc(-c4cnn(C)c4)nc3c2)c1 [Compound 565]
21 | 138 °C | c1ccc(N(CC2CC2)c2ccc3ncc(-c4cn[nH]c4)nc3c2)cc1 [Compound 54]
22 | 122 °C | CCOP(=O)(CCN(c1cc(OC)cc(OC)c1)c1ccc2ncc(-c3cnn(C)c3)nc2c1)OCC
23 | > 260 °C | COc1cc(OC)cc(N(CCN2C[C@@H]3C[C@H]2CN3)c2ccc3ncc(-c4cnn(C)c4)nc3c2)c1 (as salt: HCl) [Compound 621]
24 | 160 °C | COc1cc(OC)cc(N(CCNC(C)C)c2ccc3ncc(-c4cnn(C5CCOC5)c4)nc3c2)c1 (stereo not drawn) (as salt: HCl)

Row | melting point | SMILES
25 | 103 °C and 103.14 °C | CNCCn1cc(-c2cnc3ccc(N(CC4CC4)c4cc(OC)cc(OC)c4)cc3n2)cn1
26 | 96.65 °C | COc1cc(F)cc(N(CCN)c2ccc3ncc(-c4cnn(C)c4)nc3c2)c1 [Compound 488]
27 | 154 °C | COc1cc(OC)cc(N(C[C@H](O)C(F)(F)F)c2ccc3ncc(-c4cnn(CCCN)c4)nc3c2)c1 (stereo in doubt)
28 | 160.14 °C and 164 °C | COc1cc(OC)cc(N(c2ccc3ncc(-c4cnn(C)c4)nc3c2)C2COC2)c1
29 | 145.81 °C | COc1cc(OC)cc(N(CC2CC2)c2ccc3ncc(-c4cnn(CC(=O)N(C)C)c4)nc3c2)c1 [Compound 212]
30 | 197 °C | CCn1cc(-c2cnc3ccc(N(CCCN4CCCC4=O)c4cc(OC)cc(OC)c4)cc3n2)cn1 (as salt: HCl)
31 | 251.77 °C | [2H]C([2H])([2H])Oc1cc(OC)cc(N(CCNC(C)C)c2ccc3ncc(-c4cn[nH]c4)nc3c2)c1 [Compound 432]
32 | 187 °C | COc1cc(OC)cc(N(CC2OCCN(C(C)C)C2=O)c2ccc3ncc(-c4cnn(C)c4)nc3c2)c1 (stereo not drawn)
33 | 165 °C | COc1cc(OCCO)cc(N(CCN)c2ccc3ncc(-c4cnn(C)c4)nc3c2)c1
34 | 134 °C | COc1cc(OC)cc(N(Cc2cc(C)no2)c2ccc3ncc(-c4cnn(CCO)c4)nc3c2)c1 [Compound 23]
35 | 126 °C | COc1cc(OC)cc(N(CC2CCN(c3nccc(OC)n3)CC2)c2ccc3ncc(-c4cnn(C)c4)nc3c2)c1 [Compound 839]
36 | 152.97 °C and 153 °C | COc1cc(OC)cc(N(CCO)c2ccc3ncc(-c4cnn(C)c4)nc3c2)c1
37 | 167 °C | COc1cc(OC)cc(N(CC2CNCCN2)c2ccc3ncc(-c4cnn(C)c4)nc3c2)c1 (stereo not drawn)
38 | 183.2 °C | COc1cc(OCCO)cc(N(CC2CC2)c2ccc3ncc(-c4cnn(CCO)c4)nc3c2)c1 (as salt: HCl) [Compound 131, 2-[4-(7-{(Cyclopropylmethyl)[3-(2-hydroxyethoxy)-5-methoxyphenyl]amino}quinoxalin-2-yl)-1H-pyrazol-1-yl]ethanol]
39 | 157 °C | COc1cc(OC)cc(N(CC2COCC(C)(C)N2)c2ccc3ncc(-c4cnn(C)c4)nc3c2)c1 (stereo not drawn)
40 | 170 °C | COc1cc(OC)cc(N(CC#Cc2cc(OC)nc(OC)n2)c2ccc3ncc(-c4cnn(C)c4)nc3c2)c1 [Compound 913]
41 | 174 °C and 173.67 °C | CNC(=O)Cn1cc(-c2cnc3ccc(N(CCN)c4cc(OC)cc(OC)c4)cc3n2)cn1 [Compound 34]
42 | 139.15 °C | CNC1CCN(CCCN(c2cc(OC)cc(OC)c2)c2ccc3ncc(-c4cnn(C)c4)nc3c2)C1 (stereo not drawn)
43 | 196 °C and 195.95 °C | COc1cc(OC)cc(N(CCc2nnn[nH]2)c2ccc3ncc(-c4cnn(C)c4)nc3c2)c1
44 | 132 °C | COc1cc(C)cc(N(CC2CC2)c2ccc3ncc(-c4cnn(C)c4)nc3c2)c1 [Compound 228]
45 | 166 °C | COc1cc(OC)cc(N(CC#CC2(O)CCN(C(=O)OC(C)(C)C)CC2)c2ccc3ncc(-c4cnn(C)c4)nc3c2)c1 [Compound 914]
46 | 159.08 °C and 159 °C | COc1cc(OC)cc(N(CC2CC2)c2ccc3ncc(-c4cnn(CC(C)(C)O)c4)nc3c2)c1
47 | 187.39 °C and 188 °C | COc1cc(OC)cc(N(C[C@@H](O)CO)c2ccc3ncc(-c4cnn(C)c4)nc3c2)c1 (single isomer, unassigned) [Compound 97]
48 | 170 °C | COc1cc(OC)cc(N(Cc2ncccn2)c2ccc3ncc(-c4cnn(C)c4)nc3c2)c1 [Compound 812]

Row | melting point | SMILES
49 | 202.94 °C | COc1cc(OC)cc(N(CCC#N)c2ccc3ncc(-c4cnn(C)c4)nc3c2)c1 [Compound 122]
50 | 155.31 °C | COc1cc(OC)cc(N(CCCN2CCCC2)c2ccc3ncc(-c4cnn(CCS(C)(=O)=O)c4)nc3c2)c1 [Compound 295]
51 | 206.48 °C | COc1cc(OC)cc(N(CC(O)CN2CCC(F)(F)C2)c2ccc3ncc(-c4cnn(C)c4)nc3c2)c1 (stereo not drawn) [Compound 374]
52 | 170.82 °C | CNC(=O)Cn1cc(-c2cnc3ccc(N(CC4CC4)c4cc(OC)cc(OC)c4)cc3n2)cn1
53 | 155 °C | COc1cc(OC)cc(N(CCCNCC(N)=O)c2ccc3ncc(-c4cnn(C)c4)nc3c2)c1 [Compound 641]
54 | 204.45 °C and 204.5 °C | CNC(=O)Cn1cc(-c2cnc3ccc(N(CCO)c4cc(OC)cc(OC)c4)cc3n2)cn1 [Compound 21]
55 | 144 °C and 142 °C | COc1cc(OC)cc(N(CC#Cc2ncccc2OC)c2ccc3ncc(-c4cnn(C)c4)nc3c2)c1 [Compound 652, N-(3,5-Dimethoxyphenyl)-N-[3-(3-methoxypyridin-2-yl)prop-2-yn-1-yl]-3-(1-methyl-1H-pyrazol-4-yl)quinoxalin-6-amine]
56 | 101.91 °C | COCCn1cc(-c2cnc3ccc(N(CC4CC4)c4cc(OC)cc(OC)c4)cc3n2)cn1
57 | 175 °C | COc1cc(OC)cc(N(CCCNCC(F)(F)F)c2ccc3ncc(-c4cnn(CCCN)c4)nc3c2)c1
58 | 80 °C | COc1cc(OC)cc(N(c2ccc3ncc(-c4cnn(C)c4)nc3c2)S(=O)(=O)N(C)C)c1
59 | 142 °C | COc1cc(F)cc(N(CC2CC2)c2ccc3ncc(-c4cnn(C)c4)nc3c2)c1
60 | 198.91 °C | COc1cc(OC)cc(N(CCCN)c2ccc3ncc(-c4cn[nH]c4)nc3c2)c1 [Compound 338]
61 | 186 °C and 186.76 °C and 187 °C | COc1cc(OC)cc(N(CC(O)CO)c2ccc3ncc(-c4cnn(C)c4)nc3c2)c1 (stereo not drawn) [Compound 75]
62 | 180 to 182 °C and 181 °C | CNCCN(c1cc(OC)cc(OC)c1)c1ccc2ncc(-c3cnn(C)c3)nc2c1
63 | 164.5 °C | COc1cc(OC)cc(N(Cc2cccnc2)c2ccc3ncc(-c4cnn(C)c4)nc3c2)c1 [Compound 568]
64 | 133.66 °C | COc1cc(OC)cc(N(CCO)c2ccc3ncc(-c4cnn(CCCN)c4)nc3c2)c1 [Compound 238]
65 | 200 °C | COc1cc(OC)cc(N(CCCc2nccc(O)n2)c2ccc3ncc(-c4cnn(C)c4)nc3c2)c1 [Compound 663]
66 | 157 °C and 156 °C | COc1cc(OC)cc(N(CC#CCO)c2ccc3ncc(-c4cnn(C)c4)nc3c2)c1
67 | 138 °C | CCOc1cc(F)cc(N(CCO)c2ccc3ncc(-c4cnn(C)c4)nc3c2)c1 [Compound 401]
68 | 168.25 °C | COc1cc(OC)cc(N(CCCO)c2ccc3ncc(-c4cnn(C5CCCCO5)c4)nc3c2)c1 (stereo not drawn)
69 | 80 °C | COc1cc(F)cc(N(CCO)c2ccc3ncc(-c4cn[nH]c4)nc3c2)c1
70 | 144 °C | COc1cc(OC)cc(N(C/C(C)=N/O)c2ccc3ncc(-c4cnn(C)c4)nc3c2)c1 [Compound 80]
71 | 147.77 °C | COc1cc(OC)cc(N(CCN2CCC(F)(F)CC2)c2ccc3ncc(-c4cnn(C)c4)nc3c2)c1 [Compound 431]
72 | 194 °C | COc1cc(F)cc(N(CCNC(C)C)c2ccc3ncc(-c4cn[nH]c4)nc3c2)c1
